The source of these data is ChEMBL document CHEMBL2150935, “Synthesis, biological evaluation and chemometric analysis of indazole derivatives. 1,2-Disubstituted 5-nitroindazolinones, new prototypes of antichagasic drug” (Eur J Med Chem, 2012).

Series [1] concerns Trypanosoma cruzi. In words: Growth inhibition of epimastigote form of Trypanosoma cruzi CL-B5 at 128 uM after 72 hrs by lacZ reporter gene assay. The class given is functional. The note with it: CL-B5, 72 h, read-out: GI.
Series [2] in a line: Growth inhibition of mouse J774 cells at 256 uM after 24 hrs by resazurin reduction assay. The class given is cell-based. The note with it: read-out: GI. In general terms: Alamar Blue is a resazurin reagent that responds to reducing activity.
Series [3] has as its system Trypanosoma cruzi. In words: Growth inhibition of epimastigote form of Trypanosoma cruzi CL-B5 at 256 uM after 72 hrs by lacZ reporter gene assay. It counts as functional. The note with it: CL-B5, 72 h, read-out: GI. A general note: In a reporter assay the amount or activity of a reporter protein is the signal.
Series [4] in a line: Growth inhibition of mouse J774 cells at 128 uM after 24 hrs by resazurin reduction assay. The class given is cell-based. The note with it: read-out: GI.
For series [5], the system named is Trypanosoma cruzi. In words: Growth inhibition of epimastigote form of Trypanosoma cruzi CL-B5 at 64 uM after 72 hrs by lacZ reporter gene assay. It counts as functional. The note with it: CL-B5, 72 h, read-out: GI.
A short description of series [6]: Growth inhibition of mouse J774 cells at 64 uM after 24 hrs by resazurin reduction assay. It counts as cell-based. The note with it: read-out: GI.

On to `CCCOc1c2cc([N+](=O)[O-])ccc2nn1Cc1ccccc1`, for which the inhibition of growth at 128 µM in the series on Trypanosoma cruzi [1] was 26.1%. In addition, the inhibition at 24 h, 256 µM in series [2] was determined as 0%. For the same compound, in the series with Trypanosoma cruzi [3], the inhibition of growth at 256 µM is 0%. Besides, the inhibition at 24 h, 128 µM in series [4] was 0%. Also, the inhibition of growth at 64 µM in the series on Trypanosoma cruzi [5] was 15.7%. The inhibition at 24 h, 64 µM in series [6] came out at 0%.

In the case of `Cn1c2ccc([N+](=O)[O-])cc2c(=O)n1CCc1ccccc1`, the inhibition of growth at 128 µM with Trypanosoma cruzi [1] came out at 29.1%. Moreover, the inhibition at 24 h, 256 µM in series [2] was found to be 0%. The inhibition of growth at 256 µM with Trypanosoma cruzi [3] stood at 23.4%. In addition, in series [4], the inhibition at 24 h, 128 µM came out at 0%. The inhibition of growth at 64 µM with Trypanosoma cruzi [5] came out at 49.6%. Moreover, the inhibition at 24 h, 64 µM in series [6] is 0%.

With `Cn1c2ccc([N+](=O)[O-])cc2c(=O)n1-c1ccccc1`, in the series on Trypanosoma cruzi [1], the inhibition of growth at 128 µM was determined as 84.3%. Also, the inhibition at 24 h, 256 µM in series [2] worked out at 20.7%. Besides, in the series on Trypanosoma cruzi [3], the inhibition of growth at 256 µM was 89.1%. Also, the inhibition at 24 h, 128 µM in series [4] came out at 9.95%. Besides, the inhibition of growth at 64 µM in the series with Trypanosoma cruzi [5] was 81.8%. For the same compound, the inhibition at 24 h, 64 µM in series [6] was 0%.

With `Cn1nc(OCCc2ccccc2)c2cc([N+](=O)[O-])ccc21`, in the series with Trypanosoma cruzi [1], the inhibition of growth at 128 µM was 40.6%. For the same compound, the inhibition at 24 h, 256 µM in series [2] is 0%. In addition, in the series on Trypanosoma cruzi [3], the inhibition of growth at 256 µM turned out to be 49.4%. Also, the inhibition at 24 h, 128 µM in series [4] was 2.99%. The inhibition of growth at 64 µM with Trypanosoma cruzi [5] was 67%. Also, the inhibition at 24 h, 64 µM in series [6] amounted to 0%.

Take `CCCOc1c2cc([N+](=O)[O-])ccc2nn1Cc1ccc2ccccc2c1`: the inhibition of growth at 128 µM in the series with Trypanosoma cruzi [1] was found to be 16.4%. For the same compound, the inhibition at 24 h, 256 µM in series [2] stood at 0%. In addition, the inhibition of growth at 256 µM in the series with Trypanosoma cruzi [3] is 22.5%. Besides, the inhibition at 24 h, 128 µM in series [4] turned out to be 28.5%. The inhibition of growth at 64 µM in the series on Trypanosoma cruzi [5] is 61.2%. Besides, in series [6], the inhibition at 24 h, 64 µM worked out at 22.4%.

Regarding `CC(C)n1c2ccc([N+](=O)[O-])cc2c(=O)n1-c1ccccc1`, in the series on Trypanosoma cruzi [1], the inhibition of growth at 128 µM was determined as 54.7%. For the same compound, in series [2], the inhibition at 24 h, 256 µM was 16.8%. Besides, the inhibition of growth at 256 µM in the series with Trypanosoma cruzi [3] was 84%. Further, the inhibition at 24 h, 128 µM in series [4] worked out at 0%. Further, the inhibition of growth at 64 µM in the series on Trypanosoma cruzi [5] was determined as 28.3%. Also, the inhibition at 24 h, 64 µM in series [6] was 0%.

Regarding `CC(C)n1c2ccc([N+](=O)[O-])cc2c(=O)n1Cc1ccc2ccccc2c1`, in the series on Trypanosoma cruzi [1], the inhibition of growth at 128 µM came out at 13%. Besides, the inhibition at 24 h, 256 µM in series [2] is 0%. In addition, the inhibition of growth at 256 µM in the series with Trypanosoma cruzi [3] is 24.2%. Besides, the inhibition at 24 h, 128 µM in series [4] was 0%. The inhibition of growth at 64 µM in the series with Trypanosoma cruzi [5] amounted to 10.7%. The inhibition at 24 h, 64 µM in series [6] was 0%.

Take `Cn1c2ccc([N+](=O)[O-])cc2c(=O)n1Cc1ccc2ccccc2c1`: in the series on Trypanosoma cruzi [1], the inhibition of growth at 128 µM worked out at 40.9%. The inhibition at 24 h, 256 µM in series [2] turned out to be 0%. For the same compound, in the series with Trypanosoma cruzi [3], the inhibition of growth at 256 µM came out at 37.7%. Besides, the inhibition at 24 h, 128 µM in series [4] was determined as 0%. In the series with Trypanosoma cruzi [5], the inhibition of growth at 64 µM came to 42.5%. Moreover, in series [6], the inhibition at 24 h, 64 µM was 0%.
